Assay results: patent US10912787B2, “Use of N-acetylglucosamine and derivatives thereof to treat muscle disorders” (PUREPHARM INC., priority 2017, dated 2021)
“Also recorded” adds a separate entry of the source.

Assays:
C2C12 cells [1] = assay: Myogenesis of murine myoblast C2C12 cells (MHC-positive multinucleated myotubes, immunofluorescence); format: cell-based; details: for myogenesis (GlcNAc vs glucosamine): C2C12, different doses, FIGS. 4A-4F; for number of multinuclear MHC expressing myotubes: C2C12, differentiation stopped after 72 hours
Procedure: (§1) N-Acetylglucosamine promotes myogenesis of murine myoblasts: Myogenesis of murine myoblast cells, C2C12 cells was induced by replacing the medium from growing medium (DMEM supplemented with 10% fetal calf serum) to DMEM supplemented with 1% horse serum, insulin (10 μg/ml), transferrin (5.5 μg/ml) and selenium (5 ng/ml) in the presence or absence of different doses of N-acetylglucosamine (GlcNAc). This condition induces the differentiation of myoblasts, including the induction of the synthesis of myosine heavy chains (MHC). Then myoblasts start fusing with each other to form myotubes, which are multinucleated. Cells were fixed in 3.8% paraformaldehyde containing phosphate buffered saline (PBS) for 15 min. Then cells were permeabilized by PBS-0.25% Triton X100 for 5 min. After washed with PBS, the cells were incubated with anti-MHC antibody (Clone MF-20, 2.5 μg/ml) in the blocking agents (Vectors laboratories) for an hour, followed by anti-mouse antibody labelled with Alex 488. Then nuclei of the cells were stained with DAPI. Fluorescent images were taken through 20× objectives by using Queorum WaveFX spinning Disc confocal system.
In the condition shown in FIG. 1, the myogenesis was stopped after the differentiation for 72 hours, which was 18 hours after the presence of myotubes became detectable. […] In FIGS. 2A and 2B, the differentiation was stopped at 62 hours. Fields of view (5×5 FOVs) are stitched together and shown here. One FOV is 0.533 mm square. White color is MHC-positive myotube cells.
as §1, with “Glucosamine is a commercially available supplement, which has been claimed to reduce arthritic pain, although there is any scientific evidence to support this claim. It was examined whether glucosamine has any significant effect on the myogenesis.” for “N-Acetylglucosamine promotes myogenesis of murine myoblasts:”, “(GlcNAc) or glucosamine.” for “(GlcNAc).”, “fusing” for “fusing with”, “PBS—0.25%” for “PBS-0.25%”

[2] = test system: Myoblasts derived from a patient of DM1; assay: Myogenesis of myoblasts derived from a patient of myotonic dystrophy 1; format: cell-based, human; details: after 120 hours of differentiation, FIG. 3
Procedure: It is known that myogenesis is impaired in myotonic dystrophy 1 (DM1). The therapeutic potential of GlcNAc on this impaired myogenesis was thus tested. Myoblasts derived from a patient of DM1 were grown in DMEM supplemented with 20% fetal calf serum till the density of cells reached to 90% confluency. Then, the differentiation was induced by changing the medium to DMEM supplemented with 1% fetal calf serum, 10 μg/ml insulin, and 100 μg/ml apotransferrin. After 120 hours, cells were fixed and MHC in the cells were visualized by the method described in Example 1.

C2C12 cells [3] = assay: Statin-reduced myogenesis of C2C12 cells with or without Simvastatin; format: cell-based, murine; details: C2C12, 44 hours; for myoblast differentiation / myogenesis in the presence of Simvastatin: FIG. 5
From the text: It is estimated that 10-15% of individuals who take statins-related compounds develop statin-related muscle adverse effects, ranging from mild myalgia to more severed muscle symptoms while the mechanism of statin-induced myopathy remains undetermined. In vitro myogenesis, statins-related compounds reduce in vitro myogenesis and stable adhesion of myotubes. Thus, it was examined whether GlcNAc treatment has any significant effect on the statin-reduced myogenesis. Myogenesis of murine myoblast cells, C2C12 cells was induced by replacing the medium from growing medium to differentiation medium as above DMEM in the presence or absence of different doses of N-acetylglucosamine (GlcNAc) with or without Simvastatin for 44 hours. Cells were then fixed in 3.8% paraformaldehyde containing phosphate buffered saline (PBS) for 15 min. Then cells were permeabilized by PBS-0.25% Triton X100 for 5 min. After washed with PBS, the cells were incubated with anti-MHC antibody (Clone MF-20, 2.5 μg/ml) in the blocking agents (Vectors laboratories) for an hour, followed by anti-mouse antibody labelled with Alex 488. Then nuclei of the cells were stained with DAPI. Fluorescent images were taken through 20× objectives by using Queorum WaveFX spinning Disc confocal system.

[4] = human, long-term oral administration; cited from earlier work
C2C12 cells [5] = assay: Myogenesis of murine myoblast C2C12 cells (MHC-positive multinucleated myotubes, immunofluorescence); format: cell-based; details: FIG. 4

Row | SMILES | myogenesis (GlcNAc vs glucosamine) (C2C12 cells [1]) | myogenesis (GlcNAc vs glucosamine) (C2C12 cells [1]; listed as N-acetylglucosamine) | number of multinuclear MHC expressing myotubes (C2C12 cells [1]; FIG. 1) | number of multinuclear MHC expressing myotubes (C2C12 cells [1]; FIG. 1, listed as N-acetylglucosamine) | number, length and width of myotubes (C2C12 cells [1]; C2C12, differentiation stopped at 62 hours, FIGS. 2A and 2B) | myogenesis of C2C12 cells (C2C12 cells [1]; dose of 0.2 mM, 72 hours, FIG. 1) | myogenesis of human myoblasts of DM1 [2] | myogenesis of human myoblasts of DM1 ([2]; listed as N-acetylglucosamine) | myoblast differentiation / myogenesis in the presence of Simvastatin (C2C12 cells [3]) | myoblast differentiation / myogenesis in the presence of Simvastatin (C2C12 cells [3]; listed as N-acetylglucosamine) | adhesion of myotubes (C2C12 cells [3]; with Simvastatin, preliminary data not shown) | adverse effect [4] | formation of myotube in the presence of Simvastatin alone (C2C12 cells [3]) | cell toxicity (C2C12 cells [5])
1 | CC(=O)N[C@H]1C(O)O[C@H](CO)[C@@H](O)[C@@H]1O (stereo partly drawn) [GlcNAc, N-acetylglucosamine] | Promotes the Myogenesis | increases the formation of myotubes | increases the number of multinuclear MHC expressing myotubes | increase of myogenesis of mouse myoblasts | increased not only the number of multinuclear MHC expressing myotubes but also the length and width of the myotubes | promotes myogenesis of C2C12 cells | promote the myogenesis of human myoblasts of DM1 | increase of the myogenesis of human myoblasts | renders myoblast appropriate differentiation even in the presence of Simvastatin | restores the myogenesis that is partially impaired by statin | stabilizes the adhesion of myotubes | not to have any significant adverse effect |  | 
2 | CCC(C)(C)C(=O)O[C@H]1C[C@@H](C)C=C2C=C[C@H](C)[C@H](CC[C@@H]3C[C@@H](O)CC(=O)O3)[C@H]21 [Simvastatin, reference compound] |  |  |  |  |  |  |  |  |  |  |  |  | the formation of myotube was reduced | 
3 | N[C@H]1C(O)O[C@H](CO)[C@@H](O)[C@@H]1O (stereo partly drawn) [glucosamine] | fails to promote the myogenesis; also recorded: inhibition of myogenesis; also recorded: fails to induce any positive impact on the myogenesis |  |  |  |  |  |  |  |  |  |  |  |  | showed toxicity to the myotubes; also recorded: induce cell toxicity
